From patent US9546401B2, “Assays and methods for selecting a treatment regimen for a subject with depression” (The General Hospital Corporation, priority 2011, dated 2017)
Where two headings read alike, the source gives them in different places.

System: MDD patients carrying the indicated biomarkers
Method: Folate levels are classified as either low (<=2.5 ng/ml) or normal; and homocysteine levels as either normal or elevated (>=[…]). The presence or absence of at least one […] allele for the MTHFR gene are entered as a dichotomous variable (present or absent). […] Using folate as an example predicator, the presence or absence of a low serum-folate level along with treatment assignment can be entered in a 2×2, factorial ANOVA, using depression improvement scores (baseline minus endpoint HAM-D-17 scores) as the dependant variable. […] Similar analyses (i.e. separate 2×2 ANOVA's) can be performed substituting the presence of low folate levels for the presence of other predictors as described herein. Similarly, the effect of other predictors can be indicated by the interaction term representing the potential modulating influence of those variables.
The efficacy effect is determined by measuring the mean change in the HAMD-17 score and HAMD-28 score by the end of Phase I and Phase II, as compared to the baseline.

[1] = Phase I, BMI < 30 kg/m^2 and SAM/SAH >= median
[2] = Phase I, BMI >= 30 kg/m^2 and HNE-His >= median
[3] = Phase I, BMI*treat (interaction of BMI with the treatment)
[4] = Phase I, MTHFR 677 CC and BMI < 30 kg/m^2
[5] = Phase I, MTHFR 677 CT or TT and BMI >= 30 kg/m^2
[6] = Phase I, MTHFR 677 CT or TT and HNE-His >= median
[7] = Phase I, MTR 2756 AA and BMI < 30 kg/m^2
[8] = Phase I, MTR 2756 AA and HNE-His < median
[9] = Phase I, MTR 2756 AA and MTRR 66 AA
[10] = Phase I, MTR 2756 AA and MTRR 66 AA and SAM/SAH >= median
[11] = Phase I, MTR 2756 AA and SAM/SAH >= median
[12] = Phase I, MTR 2756 AG or GG and BMI >= 30 kg/m^2
[13] = Phase I, MTR 2756 AG or GG and MTRR 66 AG or GG
[14] = Phase I, MTR 2756 AG or GG and MTRR 66 AG or GG and HNE-His >= median
[15] = Phase I, MTRR 66 AA and SAM/SAH >= median
[16] = Phase I, MTRR 66 AG or GG and HNE-His >= median
[17] = Phase I, SAM/SAH < median and HNE-His >= median
[18] = Phase I, SAM/SAH >= median and HNE-His < median
[19] = Phase II, 25 =< BMI < 30 kg/m^2

## CN1c2c(nc(N)[nH]c2=O)NC[C@@H]1CNc1ccc(C(=O)N[C@@H](CCC(=O)O)C(=O)O)cc1 [6(S)-5-MTHF, 6(S)-5-methyltetrahydrofolate]
Phase I, BMI < 30 kg/m^2 and HNE-His < median
  Effect on change in HAMD-28 score: 4.606
[1]
  Effect on change in HAMD-17 score: 4.333
  Effect on change in HAMD-28 score: 4.333
Phase I, BMI >= 30 kg/m^2
  Effect on change in HAMD-17 score: −6.414
  Effect on change in HAMD-28 score: −6.677
[2]
  Effect on change in HAMD-17 score: −6.569
  Effect on change in HAMD-28 score: −6.510
Phase I, BMI >= 30 kg/m^2 and SAM/SAH < median
  Effect on change in HAMD-17 score: −5.611
Phase I, BMI >= 30 kg/m^2 and SAM/SAH < median = 2.71 (plasma)
  Effect on change in HAMD-28 score: −6.306
[3]
  Effect on change in HAMD-17 score: −0.567
  Effect on change in HAMD-28 score: −0.668
[4]
  Effect on change in HAMD-17 score: 4.500
  Effect on change in HAMD-28 score: 2.769
Phase I, MTHFR 677 CC and HNE-His < median
  Effect on change in HAMD-17 score: −1.471
Phase I, MTHFR 677 CC and HNE-His < median = 3.28 (plasma)
  Effect on change in HAMD-28 score: −2.821
[5]
  Effect on change in HAMD-17 score: −8.738
  Effect on change in HAMD-28 score: −9.857
[6]
  Effect on change in HAMD-17 score: −7.143
  Effect on change in HAMD-28 score: −6.929
Phase I, MTR 2756 AA
  Effect on change in HAMD-17 score: −0.621
  Effect on change in HAMD-28 score: 0.409
[7]
  Effect on change in HAMD-17 score: 4.476
  Effect on change in HAMD-28 score: 5.524
[8]
  Effect on change in HAMD-17 score: 0.306
  Effect on change in HAMD-28 score: 0.639
[9]
  Effect on change in HAMD-17 score: 3.125
  Effect on change in HAMD-28 score: 5.000
Phase I, MTR 2756 AA and MTRR 66 AA and HNE-His < median
  Effect on change in HAMD-17 score: 3.000
Phase I, MTR 2756 AA and MTRR 66 AA and HNE-His < median = 3.28 (plasma)
  Effect on change in HAMD-28 score: 4.200
[10]
  Effect on change in HAMD-17 score: −0.400
  Effect on change in HAMD-28 score: −1.000
[11]
  Effect on change in HAMD-17 score: −1.556
  Effect on change in HAMD-28 score: −1.278
[12]
  Effect on change in HAMD-17 score: −12.905
  Effect on change in HAMD-28 score: −18.762
Phase I, MTR 2756 AG or GG and HNE-His >= median
  Effect on change in HAMD-17 score: −7.125
Phase I, MTR 2756 AG or GG and HNE-His >= median = 3.28 (plasma)
  Effect on change in HAMD-28 score: −9.950
[13]
  Effect on change in HAMD-17 score: −6.900
  Effect on change in HAMD-28 score: −9.996
[14]
  Effect on change in HAMD-17 score: −7.200
  Effect on change in HAMD-28 score: −9.800
Phase I, MTR 2756 AG or GG and MTRR 66 AG or GG and SAM/SAH < median
  Effect on change in HAMD-17 score: −9.000
Phase I, MTR 2756 AG or GG and MTRR 66 AG or GG and SAM/SAH < median = 2.71 (plasma)
  Effect on change in HAMD-28 score: −12.741
Phase I, MTR 2756 AG or GG and SAM/SAH < median
  Effect on change in HAMD-17 score: −9.800
Phase I, MTR 2756 AG or GG and SAM/SAH < median = 2.71 (plasma)
  Effect on change in HAMD-28 score: −14.993
Phase I, MTR 2756 AG/GG
  Effect on change in HAMD-17 score: −7.143
  Effect on change in HAMD-28 score: −10.926
Phase I, MTRR 66 AA and HNE-His < median
  Effect on change in HAMD-17 score: −1.167
Phase I, MTRR 66 AA and HNE-His < median = 3.28 (plasma)
  Effect on change in HAMD-28 score: −4.167
[15]
  Effect on change in HAMD-17 score: −0.125
  Effect on change in HAMD-28 score: 0.500
[16]
  Effect on change in HAMD-17 score: −5.958
  Effect on change in HAMD-28 score: −6.975
Phase I, MTRR 66 AG or GG and SAM/SAH < median
  Effect on change in HAMD-17 score: −5.062
Phase I, MTRR 66 AG or GG and SAM/SAH < median = 2.71 (plasma)
  Effect on change in HAMD-28 score: −6.498
[17]
  Effect on change in HAMD-17 score: −3.670
  Effect on change in HAMD-28 score: −4.227
Phase I, SAM/SAH >= med
  Effect on change in HAMD-17 score: −0.946
Phase I, SAM/SAH >= med = 2.71 (plasma)
  Effect on change in HAMD-28 score: −1.148
[18]
  Effect on change in HAMD-17 score: −0.250
  Effect on change in HAMD-28 score: −0.750
Phase I, SAM/SAH*treat, first line under HAMD28
  Effect on change in HAMD-28 score: 0.495
Phase I, baseHAMD-17*treat (interaction of base HAMD-17 with the treatment)
  Effect on change in HAMD-17 score: 0.165
[19]
  Effect on change in HAMD-17 score: 2.000
  Effect on change in HAMD-28 score: 0.000
Phase II, BMI < 25
  Effect on change in HAMD-17 score: −1.400
